Bridge positions count the residues as written; N and C are the ends. Square brackets hold non-standard residues; d marks the D form. Ends that are not written are not given here. cellulose = not defined here; βAla = NCCC(=O)O
Tests used:
[1] = tested on: immunoglobulins from human plasma; assay: Affinity chromatography of human plasma on peptide-sepharose matrices, binding capacity for immunoglobulins; details: 6 volume fractions per column volume, 80 cm/h, elution pH 2.8
Method: For immobilization to a solid phase, the peptides were dissolved in coupling buffer (30% (v/v) acetonitrile, 0.5 M NaCl, 0.1 M NaHCO3, pH 8.3) to a concentration of 1 mg/ml and mixed with washed and CNBr-preactivated sepharose 4B at a volume ratio of 10:1. After completion of the coupling reaction, the peptide. matrices were washed with coupling buffer, and the excess CNBr groups were inactivated by incubation of the matrix in Tris buffer (100 mM Tris-HCl, 500 mM NaCl, pH 8.0).
The peptide loadings of the matrices were determined by photometry (A280 nm) by establishing the difference between the peptide mass employed before coupling and the non-immobilized peptide mass after coupling.
The peptide matrices were tested by means of affinity chromatography for their binding capacity and binding specificity for immunoglobulins with human plasma as a sample. Thus, 6 volume fractions of human plasma as the sample was passed through 1 column volume fraction of peptide matrix at a linear flow rate of 80 cm/h.
Prior to sample application, the affinity-chromatographic column was equilibrated with PBS, pH 7.2. […]
The determination of the concentration of the eluted protein was effected by photometric measurement of the adsorption at 280 nm. The immunoglobulin concentration was calculated therefrom with ε280 nm=1.35 cm^2/mg for IgG.

serum albumin = assay: Cellulose-immobilized 13-mer peptide variants incubated with serum albumin (negative control), anti-human IgG-AP detection; assay type: binding; set-up: key: No binding of immunoglobulin for the defined peptide variant, detection negative: 0; Binding of immunoglobulin for the defined peptide variant, detection positive: +; details: blocking buffer without addition, 3 h room temperature
How it was run: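 Peptides on cellulose via a (βA)(βA) spacer were blocked in T-TBS (pH 8.0) with 5% saccharose and 4% BSA, then exposed for 3 h at room temperature to IgG-Fc (1 μg/ml), serum diluted 1:10,000, or blocking buffer alone. Bound IgG was detected with AP-anti-human IgG (1.2 μg/ml) and NBT/BCIP colour development.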

human IgG-Fc = assay: Cellulose-immobilized 13-mer peptide variants incubated with human IgG-Fc, anti-human IgG-AP detection; assay type: binding; set-up: key: No binding of immunoglobulin for the defined peptide variant, detection negative: 0; Binding of immunoglobulin for the defined peptide variant, detection positive: +; details: IgG-Fc 1 μg/ml in blocking buffer, 3 h room temperature
How it was run: (§1)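 Membrane-bound peptides, spaced by two β-alanines, are probed with 1 μg/ml IgG-Fc or 1:10,000 serum for 3 h at room temperature; blocking buffer alone acts as control. Detection uses anti-human IgG-AP (1.2 μg/ml) and NBT/BCIP.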

[2] = tested on: immunoglobulins in human plasma; assay: Cellulose-immobilized 13-mer peptide variants incubated with human plasma, anti-human IgG-AP detection; assay type: binding; set-up: key: No binding of immunoglobulin for the defined peptide variant, detection negative: 0; Binding of immunoglobulin for the defined peptide variant, detection positive: +; details: human plasma as sample, diluted 1:10,000 in blocking buffer, 3 h room temperature
How it was run: as §1

Rel. capacity: mg of bound protein/mg of peptide matrix loading [1] [mg/mg]	Volume capacity: mg of bound protein/ml of peptide matrix [1] [mg/mL]	Result for incubation with serum albumin (immunoglobulin binding detection) (serum albumin)	Result for incubation with human IgG-Fc (immunoglobulin binding detection) (human IgG-Fc)	Result for incubation with human plasma (immunoglobulin binding detection) [2]	Substance
–	–	0	0	0	02F: cellulose-bound 13-mer variant DFAWHLGELVWCT-(βA)(βA) (DFAWHLGELVWCT[βAla][βAla]; not fully specified; printed as DFAWHLGELVWCT-(βA)(βA); also: cellulose-bound)
–	–	0	0	0	02T: cellulose-bound 13-mer variant DTAWHLGELVWCT-(βA)(βA) (DTAWHLGELVWCT[βAla][βAla]; not fully specified; printed as DTAWHLGELVWCT-(βA)(βA); also: cellulose-bound)
–	–	0	+	+	06K: cellulose-bound 13-mer variant DCAWHKGELVWCT-(βA)(βA) (DCAWHKGELVWCT-{βAla-βAla-cellulose}; disulfide 2-12 (inferred); not fully specified (N-terminus); printed as DCAWHKGELVWCT-(βA)(βA); reading uncertain)
–	–	0	0	0	11T: cellulose-bound 13-mer variant DCAWHLGELVTCT-(βA)(βA)
–	–	0	0	0	02I: cellulose-bound 13-mer variant DIAWHLGELVWCT-(βA)(βA) (DIAWHLGELVWCT[βAla][βAla]; not fully specified; printed as DIAWHLGELVWCT-(βA)(βA); also: cellulose-bound)

Second part, the substance before the results:

Substance	Rel. capacity: mg of bound protein/mg of peptide matrix loading [1] [mg/mg]	Volume capacity: mg of bound protein/ml of peptide matrix [1] [mg/mL]	Result for incubation with serum albumin (immunoglobulin binding detection) (serum albumin)	Result for incubation with human IgG-Fc (immunoglobulin binding detection) (human IgG-Fc)	Result for incubation with human plasma (immunoglobulin binding detection) [2]
acetyl-D-S-A-W-H-L-G-E-L-V-W-C-T-((βA)(βA)K) (Ac-DSAWHLGELVWCT[βAla][βAla]K; also: immobilized on sepharose 4B) [Peptide matrix A1]	0.53	4.70	–	–	–
05E: cellulose-bound 13-mer variant DCAWELGELVWCT-(βA)(βA) (disulfide 2-12 (inferred); not fully specified (N-terminus, C-terminus); printed as DCAWELGELVWCT-(βA)(βA); also: cellulose-bound)	–	–	0	0	0
02D: cellulose-bound 13-mer variant DDAWHLGELVWCT-(βA)(βA) (DDAWHLGELVWCT[βAla][βAla]; not fully specified; printed as DDAWHLGELVWCT-(βA)(βA); also: cellulose-bound)	–	–	0	0	0
05A: cellulose-bound 13-mer variant DCAWALGELVWCT-(βA)(βA) (disulfide 2-12 (inferred); not fully specified (N-terminus, C-terminus); printed as DCAWALGELVWCT-(βA)(βA); also: cellulose-bound)	–	–	0	0	0
01M: cellulose-bound 13-mer variant MCAWHLGELVWCT-(βA)(βA) (MCAWHLGELVWCT-{βAla-βAla-cellulose}; disulfide 2-12 (inferred); reading uncertain; also: printed as MCAWHLGELVWCT-(βA)(βA))	–	–	0	+	0
07Q: cellulose-bound 13-mer variant DCAWHLQELVWCT-(βA)(βA) (DCAWHLQELVWCT-{βAla-βAla-cellulose}; disulfide 2-12 (inferred); not fully specified (N-terminus); printed as DCAWHLQELVWCT-(βA)(βA); reading uncertain)	–	–	0	0	0
06T: cellulose-bound 13-mer variant DCAWHTGELVWCT-(βA)(βA) (DCAWHTGELVWCT-{βAla-βAla-cellulose}; disulfide 2-12 (inferred); not fully specified (N-terminus); printed as DCAWHTGELVWCT-(βA)(βA); reading uncertain)	–	–	0	+	0
04S: cellulose-bound 13-mer variant DCASHLGELVWCT-(βA)(βA) (disulfide 2-12 (inferred); not fully specified (N-terminus, C-terminus); printed as DCASHLGELVWCT-(βA)(βA); also: cellulose-bound)	–	–	0	+	+
01P: cellulose-bound 13-mer variant PCAWHLGELVWCT-(βA)(βA) (PCAWHLGELVWCT-{βAla-βAla-cellulose}; disulfide 2-12 (inferred); reading uncertain; also: printed as PCAWHLGELVWCT-(βA)(βA))	–	–	0	+	0

Reference: patent publication US7205382B2, “Peptides, the production and use thereof for binding immunoglobulins” (Fresenius Medical Care Affina GmbH, priority 2000, dated 2007)
